Laboratory results reported in patent publication US10646488B2 (Araxes Pharma LLC, priority 2016, dated 2020).

Biological target: T1, KRAS G12C 1-169, his-tagged protein, GDP-loaded (Homo sapiens, UniProt P01116, G12C)
T1 construct: KRAS G12C 1-169, his-tagged protein, GDP-loaded
Assay: Covalent binding (% modification) to KRAS G12C by mass spectrometry; note: test concentration or dose not given here

[1] = covalent binding to KRAS G12C after a three minute incubation period
[2] = covalent binding to KRAS G12C after a ten minute incubation period

| Structure (SMILES) | Binding % [1] | Binding % [2] | other results |
| --- | --- | --- | --- |
| C=CC(=O)N1C[C@H](C)N(c2nc(N3CC(N(C)CC(F)F)C3)nc3c(F)c(-c4c(O)cccc4F)c(Cl)cc23)C[C@H]1C [Compound 107, 1-((2R,5S)-4-(6-chloro-2-(3-((2,2-difluoroethyl) (methyl)amino)azetidin-1-yl)-8-fluoro-7-(2-fluoro-6-hydroxyphenyl)quinazolin-4-yl)-2,5-dimethyl-piperazin-1-yl) prop-2-en-1-one] | ++ (++ indicates binding activity from 50 to 90%) | – | – |
| C=CC(=O)N1CCN(c2nc(N)nc3c(F)c(-c4cc(O)cc5ccccc45)c(Cl)cc23)[C@@H](C)C1 [Compound 12, 1-((3 S)-4-(2-Amino-6-Chloro-8-Fluoro-7-(3-Hydroxynaphthalen-1-Yl)Quinazolin-4-Yl)-3-Methylpiperazin-1-Yl)Prop-2-En-1-One] | – | +++ (+++ indicates binding activity greater than 90%) | – |
| C=CC(=O)N1C[C@H](C)N(c2nc(N3CC(N(C)C)C3)nc3c(F)c(-c4c(O)cccc4F)c(Cl)cc23)C[C@H]1C [Compound 24, 1-((2R,5S)-4-(6-chloro-2-(3-(dimethylamino)azetidin-1-yl)-8-fluoro-7-(2-fluoro-6-hydroxyphenyl)quinazolin-4-yl)-2,5-dimethyl-piperazin-1-yl) prop-2-en-1-one] | – | ++ (++ indicates binding activity from 50 to 90%) | – |
| C=CC(=O)N1C[C@H](C)N(c2nc(N3CC(N(C)CC)C3)nc3c(F)c(-c4c(C)ccc5[nH]ncc45)c(Cl)cc23)C[C@H]1C [Compound 119, 1-((2R,5S)-4-(6-chloro-2-(3-(ethyl(methyl)amino)azetidin-1-yl)-8-fluoro-7-(5-methyl-1H-indazol-4-yl)quinazolin-4-yl)-2,5-dimethyl-piperazin-1-yl) prop-2-en-1-one] | + (+ indicates binding activity greater than 0% and up to 50%) | – | – |
| C=CC(=O)N1C[C@H](C)N(c2nc(N3CC4(CCN(C5CC5)CC4)C3)nc3c(F)c(-c4c(C)ccc5[nH]ncc45)c(Cl)cc23)C[C@H]1C [Compound 200, 1-((2R,5S)-4-(6-chloro-2-(7-cyclopropyl-2,7-diazaspiro[3.5]nonan-2-yl)-8-fluoro-7-(5-methyl-1H-indazol-4-yl)quinazolin-4-yl)-2,5-dimethyl-piperazin-1-yl) prop-2-en-1-one] | ++ (++ indicates binding activity from 50 to 90%) | – | – |
| C=CC(=O)N1C[C@H](C)N(c2nc(N3CC(N(C)C)C3)nc3c(F)c(-c4c(C)ccc5[nH]ncc45)c(C(F)(F)F)cc23)C[C@H]1C [Compound 189, 1-((2R,5S)-4-(2-(3-(dimethylamino)azetidin-1-yl)-8-fluoro-7-(5-methyl-1H-indazol-4-yl)-6-(trifluoromethyl)quinazolin-4-yl)-2,5-dimethyl-piperazin-1-yl) prop-2-en-1-one] | +++ (+++ indicates binding activity greater than 90%) | – | – |
| C=CC(=O)N1C[C@H](C)N(c2nc(OCCN3CCC(F)(F)C3)nc3c(F)c(-c4c(O)ccc5ccccc45)c(Cl)cc23)C[C@H]1C [Compound 213, 1-((2R,5S)-4-(6-chloro-2-(2-(3,3-difluoropyrrolidin-1-yl)ethoxy)-8-fluoro-7-(2-hydroxynaphthalen-1-yl)quinazolin-4-yl)-2,5-dimethyl-piperazin-1-yl) prop-2-en-1-one] | + (+ indicates binding activity greater than 0% and up to 50%) | – | – |
| C=CC(=O)N1C[C@H](C)N(c2nc(N3CC4(CCN4C)C3)nc3c(F)c(-c4c(O)cccc4F)c(Cl)cc23)C[C@H]1C [Compound 184, 1-((2R,5S)-4-(6-chloro-8-fluoro-7-(2-fluoro-6-hydroxyphenyl)-2-(1-methyl-1,6-diazaspiro[3.3]heptan-6-yl)quinazolin-4-yl)-2,5-dimethyl-piperazin-1-yl) prop-2-en-1-one] | ++ (++ indicates binding activity from 50 to 90%) | – | – |
| C=CC(=O)N1CCN(c2nc(N3CC(O)C3)nc3c(F)c(-c4c(O)cccc4F)c(Cl)cc23)[C@@H](C)C1 [Compound 34, 1-((3S)-4-(6-chloro-8-fluoro-7-(2-fluoro-6-hydroxyphenyl)-2-(3-hydroxy-azetidin-1-yl)quinazolin-4-yl)-3-methyl-piperazin-1-yl) prop-2-en-1-one] | – | ++ (++ indicates binding activity from 50 to 90%) | – |
| C=CC(=O)N1[C@H](C)CN(c2nc(N)nc3c(F)c(-c4cc(O)cc5ccccc45)c(Cl)cc23)C[C@@H]1C [Compound 7, 1-((2S,6R)-4-(2-amino-6-chloro-8-fluoro-7-(3-hydroxynaphthalen-1-yl)quinazolin-4-yl)-2,6-dimethyl-piperazin-1-yl) prop-2-en-1-one] | – | ++ (++ indicates binding activity from 50 to 90%) | – |
| C=CC(=O)N1CCN(c2nc(N3CC(N(C)C)C3)nc3c(F)c(-c4c(O)cccc4F)c(Cl)cc23)[C@@H](C)C1 (atropisomer, axis not shown) [Compound 59, 1-((S)-4-((R)-6-chloro-2-(3-(dimethylamino)azetidin-1-yl)-8-fluoro-7-(2-fluoro-6-hydroxyphenyl)quinazolin-4-yl)-3-methyl-piperazin-1-yl) prop-2-en-1-one] | – | + (+ indicates binding activity up to 50%) | – |
| C=CC(=O)N1C[C@H](C)N(c2nc(N3CC(N(C)C4CC4)C3)nc3c(F)c(-c4c(C)ccc5[nH]ncc45)c(Cl)cc23)C[C@H]1C [Compound 134, 1-((2R,5S)-4-(6-chloro-2-(3-(cyclopropyl (methyl)amino)azetidin-1-yl)-8-fluoro-7-(5-methyl-1H-indazol-4-yl)quinazolin-4-yl)-2,5-dimethyl-piperazin-1-yl) prop-2-en-1-one] | ++ (++ indicates binding activity from 50 to 90%) | – | – |
| C=CC(=O)N1C[C@H](C)N(c2nc(OCCCN(C)C)nc3c(F)c(-c4c(C)ccc5[nH]ncc45)c(C(F)(F)F)cc23)C[C@H]1C [Compound 215, 1-((2R,5S)-4-(2-(3-(dimethylamino)propoxy)-8-fluoro-7-(5-methyl-1H-indazol-4-yl)-6-(trifluoromethyl)quinazolin-4-yl)-2,5-dimethyl-piperazin-1-yl) prop-2-en-1-one] | +++ (+++ indicates binding activity greater than 90%) | – | – |
| C=CC(=O)N1[C@H](C)CN(c2nc(OCCN3CC(F)(F)C3)nc3c(F)c(-c4c(C)ccc5cn[nH]c45)c(Cl)cc23)C[C@@H]1C [Compound 30, 1-((2R,6S)-4-(6-chloro-2-(2-(3,3-difluoroazetidin-1-yl)ethoxy)-8-fluoro-7-(6-methyl-1H-indazol-7-yl)quinazolin-4-yl)-2,6-dimethyl-piperazin-1-yl) prop-2-en-1-one] | – | ++ (++ indicates binding activity from 50 to 90%) | – |
| C=CC(=O)N1C[C@H](C)N(c2nc(OCCN3CC(F)(F)C3)nc3c(F)c(-c4c(O)cccc4F)c(Cl)cc23)C[C@H]1C (atropisomer, axis not shown) [Compound 90, 1-((2R,5S)-4-(6-chloro-2-(2-(3,3-difluoroazetidin-1-yl)ethoxy)-8-fluoro-7-((S)-2-fluoro-6-hydroxyphenyl)quinazolin-4-yl)-2,5-dimethyl-piperazin-1-yl) prop-2-en-1-one] | +++ (+++ indicates binding activity greater than 90%) | – | – |
| C=CC(=O)N1C[C@H](C)N(c2nc(N3CC(N(CC)CC)C3)nc3c(F)c(-c4c(O)cccc4F)c(Cl)cc23)C[C@H]1C (atropisomer, axis not shown) [Compound 176, 1-((2R,5S)-4-(6-chloro-2-(3-(diethylamino)azetidin-1-yl)-8-fluoro-7-((R)-2-fluoro-6-hydroxyphenyl)quinazolin-4-yl)-2,5-dimethyl-piperazin-1-yl) prop-2-en-1-one] | + (+ indicates binding activity greater than 0% and up to 50%) | – | – |
| C=CC(=O)N1CCN(c2nc(N)nc3c(F)c(-c4c(O)cccc4F)c(Cl)cc23)[C@@H](C)C1 [Compound 4, 1-((3S)-4-(2-amino-6-chloro-8-fluoro-7-(2-fluoro-6-hydroxyphenyl)quinazolin-4-yl)-3-methylpiperazin-1-yl)prop-2-en-1-one] | – | ++ (++ indicates binding activity from 50 to 90%) | – |
| CC#CC(=O)N1C[C@H](C)N(c2nc(N3CC(N(C)C)C3)nc3c(F)c(-c4c(O)cccc4F)c(Cl)cc23)C[C@H]1C [Compound 114, 1-((2R,5S)-4-(6-chloro-2-(3-(dimethylamino)azetidin-1-yl)-8-fluoro-7-(2-fluoro-6-hydroxyphenyl)quinazolin-4-yl)-2,5-dimethyl-piperazin-1-yl) but-2-yn-1-one] | – | – | Binding % (% modification at 10 min (footnote †)): + (+ indicates binding activity greater than 0% and up to 50%) |
| C=CC(=O)N1C[C@@H](C)N(c2nc(N3CC(CO)C3)nc3c(F)c(-c4c(O)cccc4F)c(Cl)cc23)[C@@H](C)C1 [Compound 64, 1-((3R,5S)-4-(6-chloro-8-fluoro-7-(2-fluoro-6-hydroxyphenyl)-2-(3-(hydroxy-methyl)azetidin-1-yl)quinazolin-4-yl)-3,5-dimethyl-piperazin-1-yl) prop-2-en-1-one] | – | ++ (++ indicates binding activity from 50 to 90%) | – |
| C=CC(=O)N1C[C@H](C)N(c2nc(OCCc3ncccn3)nc3c(F)c(-c4c(O)cccc4F)c(Cl)cc23)C[C@H]1C [Compound 198, 1-((2R,5S)-4-(6-chloro-8-fluoro-7-(2-fluoro-6-hydroxyphenyl)-2-(2-(pyrimidin-2-yl)ethoxy)quinazolin-4-yl)-2,5-dimethyl-piperazin-1-yl) prop-2-en-1-one] | +++ (+++ indicates binding activity greater than 90%) | – | – |
| C=CC(=O)N1C[C@H](C)N(c2nc(N3CC(N(C)C)C3)nc3c(F)c(-c4c(O)cccc4F)c(Cl)cc23)C[C@@H]1C [Compound 94, 1-((2S,5S)-4-(6-chloro-2-(3-(dimethylamino)azetidin-1-yl)-8-fluoro-7-(2-fluoro-6-hydroxyphenyl)quinazolin-4-yl)-2,5-dimethyl-piperazin-1-yl) prop-2-en-1-one] | + (+ indicates binding activity greater than 0% and up to 50%) | – | – |
| C=CC(=O)N1CCN(c2nc(CN(C)Cc3ncccn3)nc3c(F)c(-c4c(O)cccc4F)c(Cl)cc23)C[C@H]1C [Compound 91, 1-((2R)-4-(6-chloro-8-fluoro-7-(2-fluoro-6-hydroxyphenyl)-2-((methyl (pyrimidin-2-yl-methyl)amino)methyl)quinazolin-4-yl)-2-methyl-piperazin-1-yl) prop-2-en-1-one] | + (+ indicates binding activity greater than 0% and up to 50%) | – | – |
